The subject of data set [1] is E. coli ATCC25992. Nature of the data set: Broth microdilution MIC (NCCLS). The format is cell-based. The note with it: Escherichia coli. In a few lines:
(§1)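 NCCLS broth microdilution in Mueller-Hinton broth, final inoculum 5×10^5 CFU/mL from early-log cultures (Enterococcus diluted from overnight cultures), serial 2-fold compound dilutions. Plates incubated 24 h at 35° C, read at 650 nm and visually; MIC = lowest concentration preventing growth.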

For data set [2], the system named is E. faecalis ATCC 29212. Nature of the data set: Broth microdilution MIC (NCCLS). The format is cell-based. The note with it: Enterococcus faecalis, ATCC29212. In a few lines:
(§2)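 Mueller-Hinton broth microdilution with 2-fold serial dilutions and a final inoculum of 5×10^5 CFU/mL. Staphylococci came from early-log cultures (1:10 regrowth 1 h, then 1:1000); enterococci came from overnight cultures diluted 1:333 (E. faecium) or 1:666 (E. faecalis). Plates were incubated 24 h at 35° C; MIC was the lowest concentration preventing growth.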
On the technique in general: Broth dilution looks for growth in wells or tubes with falling amounts of substance.

Data set [3] relates to E. faecalis VanB (Van^R). Nature of the data set: Broth microdilution MIC (NCCLS). The format is cell-based. The conditions noted are these: Enterococcus faecalis. The essentials: as §2
The test system of data set [4] is E. faecium A491 (Amp^R). Kind of data set: Broth microdilution MIC (NCCLS). The conditions noted are these: Enterococcus faecium. The format is cell-based. The essentials:
as §2

Data set [5] relates to E. faecium ATCC 35667. Kind of data set: Broth microdilution MIC (NCCLS). The format is cell-based. The conditions noted are these: Enterococcus faecium, ATCC35667. The essentials:
as §2

Data set [6] has as its system E. faecium VanA (Van^R). Nature of the data set: Broth microdilution MIC (NCCLS). The conditions noted are these: Enterococcus faecium. The format is cell-based. In a few lines:
as §2

Data set [7] concerns P. aeruginosa ATCC 27853. Kind of data set: Broth microdilution MIC (NCCLS). The format is cell-based. The note with it: Pseudomonas aeruginosa, ATCC27853. The essentials:
as §1

For data set [8], the system named is S. aureus 76 (Meth^R)(lac^+). Nature of the data set: Broth microdilution MIC (NCCLS). The format is cell-based. The conditions noted are these: Staphylococcus aureus. The essentials: as §2
Data set [9] relates to S. aureus ATCC 13709 (Meth^S). Kind of data set: Broth microdilution MIC (NCCLS). The format is cell-based. The conditions noted are these: Staphylococcus aureus, ATCC13709. In a few lines: as §2
Data set [10] has as its system S. aureus ATCC 29213. Nature of the data set: Broth microdilution MIC (NCCLS). The format is cell-based. The conditions noted are these: Staphylococcus aureus, ATCC29213, 24 h. The essentials:
as §2

Data set [11] has as its system S. aureus ATCC 33593 (Meth^R). Kind of data set: Broth microdilution MIC (NCCLS). The format is cell-based. The note with it: Staphylococcus aureus, ATCC33593. In a few lines:
as §2

For data set [12], the system named is S. aureus Col (Meth^R)(lac^−). Nature of the data set: Broth microdilution MIC (NCCLS). The note with it: Staphylococcus aureus. The format is cell-based. The essentials:
as §2

The test system of data set [13] is S. aureus Col8A (Meth^S)(lac^−). Nature of the data set: Broth microdilution MIC (NCCLS). The format is cell-based. The note with it: Staphylococcus aureus. The essentials: as §2
Data set [14] concerns S. aureus PC1 (Meth^S)(lac^+). Kind of data set: Broth microdilution MIC (NCCLS). The format is cell-based. The note with it: Staphylococcus aureus. The essentials:
as §2

For data set [15], the system named is S. aureus Spain #356 (Meth^R). Nature of the data set: Broth microdilution MIC (NCCLS). The conditions noted are these: Staphylococcus aureus, 24 h. The format is cell-based. In a few lines:
as §2

For data set [16], the system named is S. haemolyticus 05 (Meth^R). Kind of data set: Broth microdilution MIC (NCCLS). The format is cell-based. The conditions noted are these: Staphylococcus haemolyticus. In a few lines: as §2
Data set [17] deals with human serum proteins. Kind of data set: Serum binding determination by ultrafiltration/HPLC. The format is in vitro ADME. The conditions noted are these: by HPLC. The protocol:
The more accurate measurement of binding of selected cephalosporin compounds was performed using HPLC as described below.
1. Serum is placed in a shaking water bath preheated to 37±2° C. for 5 to 10 minutes to heat serum to 37° C. Serum pH is measured and recorded, while serum is 37° C. using pH paper. Measurements are taken twice, 3 minutes apart. If the pH is not 7.4±0.4 then the pH is adjusted by blowing 5% CO2/95% O2 over the serum. After blowing for several minutes, serum is heated to 37° C. and measurements are taken twice, 3 minutes apart using pH paper to determine the pH. Store at 4° C. The serum is stable for 7 days. Always check the pH before each use.
2. Before any centrifugation, the centrifuge temperature must be adjusted to 25±2° C. Preheat the centrifuge by spinning for 45 minutes at the same speed to be used in the assay (1900 g) with two tubes of water in the rotor and the temperature set to 25° C. When the centrifuge stops immediately check the temperature of the tubes of water with a calibrated thermometer. The temperature of the tubes of water must be 25±2° C. […] Continue spinning and measuring the temperature and adjusting the setting until the temperature is 25±2° C.
3. Prepare blank ultrafiltrate by pipetting blank pH 7.4 serum into an Amicon Centrifree Micropartition devices, centrifuge: fixed angle rotor, 1900 g, 25° C. for 20 minutes. Heat ultrafiltrate in a shaking water bath preheated to 37° C. Measure ultrafiltrate pH and adjust to the pH of the serum (7.4±0.2).
4. Pipette 190 ul of blank ultrafiltrate into a set of labeled 1.7 mL polypropylene microfuge tubes for 3 of each level. Pipette 10 μL of the appropriate standard stock 50, 200, 1000 μg/mL to make standards 2.5, 10, and 50 μg/mL respectively. Vortex each tube well. One set of the standard samples are mixed 1:1 with 0.2 M acetic acid and injected onto the HPLC (MSTD). These samples are the membrane standards and will be used to compare to the other standards. Pipette 190 ul of ultrafiltrate and spike with 10 ul of whatever solution (e.g. water) the standards are prepared in to make the zero standard.
5. Pipette 475 μL of blank heated pH 7.4 serum into a set of labeled 1.7 mL polypropylene microfuge tubes for 2 of each (Serum A and Serum B). Pipette 25 μL of the 1000 μg/mL standard stock into each tube, vortex each tube well to make serum standard 50 μg/mL. Remove 100 μL of serum and deproteinate with 200 μL 4% TCA while vortexing to make serum time 0 (serum 50, T0). Place serum tubes in a shaking water bath at 37° C. for 10 minutes. Pipet 100 μL of serum out and deproteinate with 200 μL 4% TCA, to make serum time 10 min (serum 50, T10). Pipet 200 ul serum standard 50 μg/mL into an ultrafiltration device, which is not treated with TCA, to determine free drug in samples (Rat Serum 50).
6. Transfer serum and standard samples to labeled Amicon Centrifree Micropartition filters, and centrifuge: 1900 g, 25° C. for 10 minutes. The extracted serum samples (T0 and T10) are spun down and supernatant is loaded into HPLC vials.
7. 100 μL of ultrafiltrate sample and 100 μL of 0.2 M acetic acid were mixed together to stabilize the compound in ultrafiltrate.
8. Transfer entire stabilized ultrafiltrate solution to a labeled autoinjector HPLC vial cap with Teflon septa, and inject on HPLC.
Peak height or area is used in a weighted linear regression.

≈ marks a conversion by molar mass, not a printed value.

The MIC is the lowest concentration found to suppress growth. A high value points to a need for much substance.

`NCCSCc1nc(Cl)sc1SC1=C(C(=O)O)N2C(=O)[C@@H](NC(=O)/C(=N\O)c3cccc(N)n3)[C@H]2SC1` [Cmpd 29, (7R)-7-[(Z)-2-(2-aminopyrid-6-yl)-2-(hydroxyimino)acetamido]-3-[2-chloro-4-(2-aminoethylthiomethyl)-1,3-thiazol-5-ylthio]-3-cephem-4-carboxylic acid]: the MIC is 16 µg/mL (≈ 26.6 µM) in data set [1]; 0.25 µg/mL (≈ 0.415 µM) in data set [2]; 0.5 µg/mL (≈ 0.83 µM) in [3]; over 32 µg/mL in data set [4]; 2 µg/mL (≈ 3.32 µM) in data set [5]; 4 µg/mL (≈ 6.64 µM) in data set [6]. For the same compound, the minimal inhibitory concentration (MIC) in data set [7] was over 32 µg/mL; in [8] it was 1 µg/mL (≈ 1.66 µM); in [9], 0.125 µg/mL (≈ 0.208 µM); in data set [10], 0.125 µg/mL (≈ 0.208 µM); in data set [11], 1 µg/mL (≈ 1.66 µM); in [12], 1 µg/mL (≈ 1.66 µM). The minimal inhibitory concentration (MIC) in data set [13] worked out at 0.125 µg/mL (≈ 0.208 µM); in data set [14], 0.25 µg/mL (≈ 0.415 µM); in [15], 2 µg/mL (≈ 3.32 µM); in [16], 2 µg/mL (≈ 3.32 µM). In addition, the “Serum Binding human (% of compound bound to serum)” value in data set [17] was 97%.

Source of the values: US6723716B1, “7-acylamino-3-heteroarylthio-3-cephem carboxylic acid antibiotics and prodrugs thereof” (Essential Therapeutics, Inc., priority 1999, dated 2004).
